This data set addresses ATP-dependent translocase ABCB1 (Homo sapiens, UniProt P08183). The experiment in a line: TP_TRANSPORTER: cell accumulation in Lucena-1 cells. It counts as functional, cell-based.

Chain of ATP-dependent translocase ABCB1 (P08183 whole entry): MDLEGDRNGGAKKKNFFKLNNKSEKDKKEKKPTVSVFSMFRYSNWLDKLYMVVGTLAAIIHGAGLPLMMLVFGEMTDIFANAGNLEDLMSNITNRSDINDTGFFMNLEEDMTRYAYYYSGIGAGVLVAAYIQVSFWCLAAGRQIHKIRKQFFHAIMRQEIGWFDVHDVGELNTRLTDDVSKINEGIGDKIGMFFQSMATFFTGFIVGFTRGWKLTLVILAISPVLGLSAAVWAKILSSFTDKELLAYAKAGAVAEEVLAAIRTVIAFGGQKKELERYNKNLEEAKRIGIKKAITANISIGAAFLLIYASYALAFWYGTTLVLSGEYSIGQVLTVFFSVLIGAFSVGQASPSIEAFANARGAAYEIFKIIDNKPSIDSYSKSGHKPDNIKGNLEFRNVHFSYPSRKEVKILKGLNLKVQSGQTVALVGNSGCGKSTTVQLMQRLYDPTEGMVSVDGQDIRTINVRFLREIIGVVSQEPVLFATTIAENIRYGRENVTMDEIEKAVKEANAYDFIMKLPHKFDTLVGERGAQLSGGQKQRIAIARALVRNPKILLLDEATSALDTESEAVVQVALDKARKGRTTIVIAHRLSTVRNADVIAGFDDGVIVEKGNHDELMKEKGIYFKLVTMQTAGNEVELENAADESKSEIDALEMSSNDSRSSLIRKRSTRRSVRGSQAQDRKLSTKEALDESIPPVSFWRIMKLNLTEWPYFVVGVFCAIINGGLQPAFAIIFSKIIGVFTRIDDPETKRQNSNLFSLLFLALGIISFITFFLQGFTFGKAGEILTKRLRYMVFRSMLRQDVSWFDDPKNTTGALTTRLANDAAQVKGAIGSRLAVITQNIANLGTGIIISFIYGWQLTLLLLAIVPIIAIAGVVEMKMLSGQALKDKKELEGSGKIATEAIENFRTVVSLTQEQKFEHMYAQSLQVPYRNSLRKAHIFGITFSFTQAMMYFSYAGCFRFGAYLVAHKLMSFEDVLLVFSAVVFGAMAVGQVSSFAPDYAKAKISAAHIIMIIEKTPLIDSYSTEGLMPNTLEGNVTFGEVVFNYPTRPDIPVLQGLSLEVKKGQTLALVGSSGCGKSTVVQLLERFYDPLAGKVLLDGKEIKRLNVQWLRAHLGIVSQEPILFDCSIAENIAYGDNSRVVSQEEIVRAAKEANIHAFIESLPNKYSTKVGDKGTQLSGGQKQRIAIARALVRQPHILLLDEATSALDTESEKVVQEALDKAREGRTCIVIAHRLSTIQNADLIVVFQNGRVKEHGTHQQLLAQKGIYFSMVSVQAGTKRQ

Consider `CN1C(=CC=Cc2n(Cc3ccc(CCl)cc3)c3cc(Cl)c(Cl)cc3[n+]2Cc2ccc(CCl)cc2)Oc2ccccc21.[Cl-]` [MITOTRACKER GREEN], for which the Activity result is “substrate [+]”.

Source of the values: ChEMBL document CHEMBL2073973, “Mitotracker green is a P-glycoprotein substrate” (Biosci Rep, 2003).
